Patent EP0745595A1, “3-(3-Aryloxyphenyl)-1-(substituted methyl)-s-triazine-2,4,6-oxo or thiotrione herbicidal agents” (American Cyanamid Company, priority 1995, dated 1996)

Experiments:
Format in all cases: in vivo
GALIUM APARINE = assay: Postemergence herbicidal evaluation, GALAP (Galium); design: key to GALAP rating / Herbicidal effect rating, GALAP / GALAP: 0-9 visual rating scale vs untreated control
Method in brief: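 In this postemergence greenhouse test, two-week-old Galium aparine seedlings grown in jiffy flats received a 40 psi spray of compound in acetone/water (50/50) with 0.5% TWEEN®20 surfactant. After four to five weeks, stand, vigor, malformation, size, chlorosis and overall appearance were compared with untreated controls on a 0-9 scale, averaging multiple tests.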

[1] = system: SETARIA VIRIDIS, (L) BEAU; assay: Postemergence herbicidal evaluation, SETVI (Foxtail, Green); design: key to SETVI rating / Herbicidal effect rating, SETVI / SETVI: 0-9 visual rating scale vs untreated control
Method in brief: (§1)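 Postemergence foliar spray at approximately 0.125–0.500 kg/ha onto two-week seedlings; greenhouse hold, then 0–9 visual injury rating after 4–5 weeks.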

[2] = system: AMBROSIA ARTEMISIIFOLIA, L.; assay: Postemergence herbicidal evaluation, AMBEL (Ragweed, Common)
Method in brief: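 Postemergence herbicidal activity on AMBEL (common ragweed) was assessed on two-week-old seedlings grown in jiffy flats. Treatment solutions of 50/50 acetone/water with 0.5% TWEEN®20 surfactant were sprayed at 40 psi. After four to five weeks in the greenhouse, plants were scored 0-9 against a control for stand, vigor, malformation, size, chlorosis and overall appearance, with multiple tests averaged.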

[3] = system: ORYZA SATIVA, L. TEBONNET; assay: Rice tolerance to post-transplant applications under flooded paddy conditions, ORYSAT (Rice, Tebonnet); conditions: for Herbicidal effect rating, ORYSAT: post-transplant rice, 3-4 weeks after treatment; for ORYSAT: post-transplanted rice
Method in brief: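 Greenhouse pots of silt loam, each with two transplanted ten-day-old seedlings, are held under 1.5 to 3 cm of standing water. Three days later the compound is applied to the flooded surface at about 0.5, 0.25, 0.125 or 0.063 kg/ha. Damage is scored visually 0-9 after 3-4 weeks.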

[4] = system: ABUTILON THEOPHRASTI, MEDIC.; assay: Postemergence herbicidal evaluation, ABUTH (Velvetleaf)
Method in brief: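 This postemergence herbicide test used two-week-old velvetleaf seedlings grown in jiffy flats. Each compound was sprayed at 40 psi as a dispersion in 50/50 acetone/water with 0.5% TWEEN®20 surfactant. Plants then received routine greenhouse care. After four to five weeks, injury was scored visually on a 0-9 scale against a control, and replicate tests were averaged.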

IPOMOEA SPP. = assay: Postemergence herbicidal evaluation, IPOSS (Morningglory spp.)
Method in brief: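 In this greenhouse postemergence herbicide test on Ipomoea spp. (morningglory), compounds in 50/50 acetone/water with 0.5% TWEEN®20 were sprayed at 40 psi onto seedlings about two weeks old grown in jiffy flats. After four to five weeks, injury was scored on a 0-9 scale covering stand, vigor, malformation, size, chlorosis and overall appearance versus control, with repeat tests averaged.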

CHENOPODIUM ALBUM, L. [5] = assay: Preemergence herbicidal evaluation, CHEAL (Lambsquarters, Common); conditions: for CHEAL herbicidal rating: rated four to five weeks after treatment
Method in brief: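 Seeds mixed with potting soil were planted on about one inch of soil in cups, then sprayed with aqueous acetone solution of test compound at about 0.125 to 0.50 kg per hectare. Plants grown under greenhouse conditions; visual rating on a 0-9 scale versus untreated control at 4-5 weeks.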

CHENOPODIUM ALBUM, L. [6] = assay: Postemergence herbicidal evaluation, CHEAL (Lambsquarters, Common)
Method in brief: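 Postemergence herbicidal activity on Chenopodium album was tested by spraying two-week-old seedlings grown in jiffy flats with compound in acetone/water (50/50) plus 0.5% TWEEN®20, using a 40 psi nozzle. Four to five weeks after treatment, stand, vigor, malformation, size, chlorosis and overall appearance were scored 0-9 relative to controls, with repeat tests averaged.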

[7] = system: TRITICUM AESTIVUM, CV. APOLLO; assay: Postemergence herbicidal evaluation, TRZAWO (Wheat, Winter, CV. APOLLO)
Method in brief: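 This greenhouse postemergence test applied compounds to roughly two-week-old wheat seedlings grown in jiffy flats. The spray solution was 50/50 acetone/water with 0.5% TWEEN®20, a polyoxyethylene sorbitan monolaurate, sprayed from a nozzle run at 40 psi. After four to five weeks of standard greenhouse care, injury was scored from 0 to 9 by comparing stand, vigor, malformation, size, chlorosis and overall appearance with a control. Multiple tests were averaged.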

CASSIA OBTUSIFOLIA, L. = assay: Postemergence herbicidal evaluation, CASOB (Sicklepod); design: key to CASOB rating / Herbicidal effect rating, CASOB / CASOB: 0-9 visual rating scale vs untreated control
Method in brief: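 Ratings (0-9) reflect visual stand, vigor, malformation, size and chlorosis compared with untreated plants, assessed 4-5 weeks after postemergence spraying. Treatment was applied to roughly two-week-old seedlings at about 0.125-0.500 kg/ha in acetone/water with 0.5% Tween 20; replicate tests were averaged.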

[8] = system: ECHINOCHLOA CRUS-GALLI, (L) BEAU; assay: Postemergence herbicidal evaluation, ECHCG (Barnyardgrass); design: key to ECHCG rating / Herbicidal effect rating, ECHCG / ECHCG: 0-9 visual rating scale vs untreated control
Method in brief: as §1

“Methyl 3-{2-[(2-chloro-α,α,α,-trifluoro-p-tolyl)oxy]phenyl}tetrahydro-5-methyl-2,4,6-trioxo-s-triazine-1(2H)-acetate [Compound 28]” was tested, and the GALAP (GALIUM APARINE; Rate 0.063 kg/ha) was 6.0, the GALAP (GALIUM APARINE; Rate 0.125 kg/ha) was 4.0 and the GALAP rating (GALIUM APARINE; Rate 0.125 kg/ha) was 4.0. For the same substance, the GALAP (GALIUM APARINE; Rate 0.250 kg/ha) was 5.0, the GALAP rating (GALIUM APARINE; Rate 0.250 kg/ha) was 5.0 and the GALAP (GALIUM APARINE; Rate 0.500 kg/ha) was 4.5. The GALAP rating (GALIUM APARINE; Rate 0.500 kg/ha) was 4.5, the SETVI ([1]; Rate 0.063 kg/ha) was 1.0 and the SETVI ([1]; Rate 0.125 kg/ha) was 1.0. For the same substance, the SETVI rating ([1]; Rate 0.125 kg/ha) was 1.0, the SETVI ([1]; Rate 0.250 kg/ha) was 2.0 and the SETVI rating ([1]; Rate 0.250 kg/ha) was 2.0. The SETVI ([1]; Rate 0.500 kg/ha) was 4.0, the SETVI rating ([1]; Rate 0.500 kg/ha) was 4.0 and the AMBEL ([2]; Rate 0.063 kg/ha) was 3.0. The AMBEL ([2]; Rate 0.125 kg/ha) was 4.0, the AMBEL rating ([2]; Rate 0.125 kg/ha) was 4.0 and the AMBEL ([2]; Rate 0.250 kg/ha) was 6.0. For the same substance, the AMBEL rating ([2]; Rate 0.250 kg/ha) was 6.0, the AMBEL ([2]; Rate 0.500 kg/ha) was 7.0 and the AMBEL rating ([2]; Rate 0.500 kg/ha) was 7.0. The “Herbicidal effect rating, ORYSAT” value ([3]; 0.063 kg/ha) was 0.0, the “Herbicidal effect rating, ORYSAT” value ([3]; 0.125 kg/ha) was 1.0 and the “Herbicidal effect rating, ORYSAT” value ([3]; 0.250 kg/ha) was 2.0. For the same substance, the “Herbicidal effect rating, ORYSAT” value ([3]; 0.500 kg/ha) was 2.0, the ORYSAT ([3]; Rate 0.250 kg/ha) was 2.0 and the ORYSAT ([3]; Rate 0.500 kg/ha) was 2.0. It also gave an ORYSAT ([3]; Rate 1.000 kg/ha) of 3.0, an ABUTH ([4]; Rate 0.063 kg/ha) of 4.0 and an ABUTH ([4]; Rate 0.125 kg/ha) of 6.0. The ABUTH rating ([4]; Rate 0.125 kg/ha) was 6.0, the ABUTH ([4]; Rate 0.250 kg/ha) was 7.0 and the ABUTH rating ([4]; Rate 0.250 kg/ha) was 7.0. It also gave an ABUTH ([4]; Rate 0.500 kg/ha) of 9.0, an ABUTH rating ([4]; Rate 0.500 kg/ha) of 9.0 and an IPOSS (IPOMOEA SPP.; Rate 0.063 kg/ha) of 6.0. It also gave an IPOSS (IPOMOEA SPP.; Rate 0.125 kg/ha) of 6.0, an IPOSS rating (IPOMOEA SPP.; Rate 0.125 kg/ha) of 6.0 and an IPOSS (IPOMOEA SPP.; Rate 0.250 kg/ha) of 8.0. For the same substance, the IPOSS rating (IPOMOEA SPP.; Rate 0.250 kg/ha) was 8.0, the IPOSS (IPOMOEA SPP.; Rate 0.500 kg/ha) was 9.0 and the IPOSS rating (IPOMOEA SPP.; Rate 0.500 kg/ha) was 9.0. For the same substance, the CHEAL (CHENOPODIUM ALBUM, L. [5]; Rate 0.125 kg/ha) was 3.0, the CHEAL herbicidal rating (CHENOPODIUM ALBUM, L. [5]; Rate 0.125 kg/ha) was 3.0 and the CHEAL (CHENOPODIUM ALBUM, L. [5]; Rate 0.250 kg/ha) was 6.0. The CHEAL herbicidal rating (CHENOPODIUM ALBUM, L. [5]; Rate 0.250 kg/ha) was 6.0, the CHEAL (CHENOPODIUM ALBUM, L. [5]; Rate 0.500 kg/ha) was 7.0 and the CHEAL herbicidal rating (CHENOPODIUM ALBUM, L. [5]; Rate 0.500 kg/ha) was 7.0. For the same substance, the CHEAL (CHENOPODIUM ALBUM, L. [5]; Rate 1.000 kg/ha) was 9.0, the CHEAL (CHENOPODIUM ALBUM, L. [6]; Rate 0.063 kg/ha) was 6.0 and the CHEAL (CHENOPODIUM ALBUM, L. [6]; Rate 0.125 kg/ha) was 6.0. It also gave a CHEAL rating (CHENOPODIUM ALBUM, L. [6]; Rate 0.125 kg/ha) of 6.0, a CHEAL (CHENOPODIUM ALBUM, L. [6]; Rate 0.250 kg/ha) of 8.0 and a CHEAL rating (CHENOPODIUM ALBUM, L. [6]; Rate 0.250 kg/ha) of 8.0. For the same substance, the CHEAL (CHENOPODIUM ALBUM, L. [6]; Rate 0.500 kg/ha) was 9.0, the CHEAL rating (CHENOPODIUM ALBUM, L. [6]; Rate 0.500 kg/ha) was 9.0 and the TRZAWO ([7]; Rate 0.063 kg/ha) was 1.5. It also gave a TRZAWO ([7]; Rate 0.125 kg/ha) of 2.0, a TRZAWO rating ([7]; Rate 0.125 kg/ha) of 2.0 and a TRZAWO ([7]; Rate 0.250 kg/ha) of 2.0. The TRZAWO rating ([7]; Rate 0.250 kg/ha) was 2.0, the TRZAWO ([7]; Rate 0.500 kg/ha) was 2.0 and the TRZAWO rating ([7]; Rate 0.500 kg/ha) was 2.0. For the same substance, the CASOB (CASSIA OBTUSIFOLIA, L.; Rate 0.063 kg/ha) was 3.0, the CASOB (CASSIA OBTUSIFOLIA, L.; Rate 0.125 kg/ha) was 5.0 and the CASOB rating (CASSIA OBTUSIFOLIA, L.; Rate 0.125 kg/ha) was 5.0. The CASOB (CASSIA OBTUSIFOLIA, L.; Rate 0.250 kg/ha) was 6.0, the CASOB rating (CASSIA OBTUSIFOLIA, L.; Rate 0.250 kg/ha) was 6.0 and the CASOB (CASSIA OBTUSIFOLIA, L.; Rate 0.500 kg/ha) was 6.5. For the same substance, the CASOB rating (CASSIA OBTUSIFOLIA, L.; Rate 0.500 kg/ha) was 6.5, the ECHCG ([8]; Rate 0.063 kg/ha) was 0.0 and the ECHCG ([8]; Rate 0.125 kg/ha) was 0.0. The ECHCG rating ([8]; Rate 0.125 kg/ha) was 0.0, the ECHCG ([8]; Rate 0.250 kg/ha) was 0.0 and the ECHCG rating ([8]; Rate 0.250 kg/ha) was 0.0. It also gave an ECHCG ([8]; Rate 0.500 kg/ha) of 2.0 and an ECHCG rating ([8]; Rate 0.500 kg/ha) of 2.0.
